22 compounds from patent US20260200916A1, “6,6 BICYCLIC HETEROCYLES USEFUL AS INHIBITORS OF NOD-LIKE RECEPTOR PROTEIN 3” (Merck Sharp & Dohme LLC, priority 2022, published 2026) can be followed below.

One may read the EC50 as the concentration giving half of the maximal effect.

Molecules are shown by their SMILES.

The target in this experiment is T1, NLRP3 inflammasome (Homo sapiens, UniProt Q96P20).
T1 construct: host or cells: THP-1 human monocytic cells, PMA-differentiated, gramicidin-stimulated
T1 sequence (Q96P20 whole entry): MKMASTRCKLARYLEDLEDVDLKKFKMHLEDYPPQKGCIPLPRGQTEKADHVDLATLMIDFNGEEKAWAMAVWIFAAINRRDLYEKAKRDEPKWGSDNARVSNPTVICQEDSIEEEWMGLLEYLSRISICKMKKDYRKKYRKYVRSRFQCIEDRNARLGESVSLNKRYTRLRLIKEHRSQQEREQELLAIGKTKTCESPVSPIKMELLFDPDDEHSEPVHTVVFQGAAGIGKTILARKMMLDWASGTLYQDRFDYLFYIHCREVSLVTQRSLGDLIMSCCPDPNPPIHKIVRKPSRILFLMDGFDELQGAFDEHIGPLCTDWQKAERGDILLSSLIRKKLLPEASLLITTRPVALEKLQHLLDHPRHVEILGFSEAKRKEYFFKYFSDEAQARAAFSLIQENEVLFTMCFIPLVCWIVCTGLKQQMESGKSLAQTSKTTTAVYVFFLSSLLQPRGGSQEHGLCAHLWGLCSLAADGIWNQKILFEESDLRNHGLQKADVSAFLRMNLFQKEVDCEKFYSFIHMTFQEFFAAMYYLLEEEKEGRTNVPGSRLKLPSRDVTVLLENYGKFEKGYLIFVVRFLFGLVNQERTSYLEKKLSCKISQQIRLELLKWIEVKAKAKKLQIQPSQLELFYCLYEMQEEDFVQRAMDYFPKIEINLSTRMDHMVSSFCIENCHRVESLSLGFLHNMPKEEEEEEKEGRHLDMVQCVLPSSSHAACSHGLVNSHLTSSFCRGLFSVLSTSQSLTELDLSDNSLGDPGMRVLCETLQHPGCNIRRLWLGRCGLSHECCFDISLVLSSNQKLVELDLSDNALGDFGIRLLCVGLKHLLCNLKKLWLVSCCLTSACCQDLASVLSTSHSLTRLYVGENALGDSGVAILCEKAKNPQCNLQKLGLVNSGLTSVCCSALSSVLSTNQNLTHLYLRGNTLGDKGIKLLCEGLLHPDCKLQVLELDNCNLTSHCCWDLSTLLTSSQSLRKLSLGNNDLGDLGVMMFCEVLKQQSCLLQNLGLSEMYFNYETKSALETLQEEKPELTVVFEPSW
The experiment in a line: ASC-SPECK formation in THP-1 cells after gramicidin stimulation (NLRP3 inflammasome activation). The experiment is classed as cell-based. The following applies: PMA-treated human monocytic THP-1 cells, compound added 1 h before 12.5 ug/ml gramicidin, 3-hour treatment, ASC SPECK imaging; read-out: EC50 (nM), inhibition of NLRP3 inflammasome activation. The protocol:
The ability of compounds to inhibit NLRP3 inflammasome activation was determined in vitro by monitoring formation of the ASC-SPECK in human monocytic THP-1 cells after stimulation. THP-1 cells (ATCC catalog #TIB-202) were maintained in complete growth media containing Roswell Park Memorial Institute RPMI (ATCC catalog #30-2001), 10% heat inactivated fetal bovine serum, 1× penicillin/streptomycin and 0.05 mM 2-mercaptoethanol. At the start of the assay, undifferentiated THP-1 cells were plated at a density of 20,000 cells per well in a 384-well plate (Poly-D-lysine coated Cell Carrier Ultra microplate, Perkin Elmer catalog #6057500) in complete growth media supplemented with 10 ng/ml phorbol 12-myristate 13-acetate (PMA; Sigma catalog #P8139), and then incubated overnight. The next day, media was replaced with assay media [RPMI (Gibco catalog #11875-093), 0.01% bovine serum albumin (BSA)]. Compounds were serially diluted in DMSO and then added to wells one hour prior to the addition of 12.5 ug/ml Gramicidin (Enzo Lifescience, catalog #ALX-350-233-M005). All incubations were carried out at 37° C. (5% C02/95% air). Following a 3-hour treatment with gramicidin, cells are fixed with 4% paraformaldehyde and stored at 4° C. until immunofluorescence staining.
Immunofluorescence staining: Anti-ASC antibody (MBL catalog #D086-3) was desalted and labeled with Alexa 488 antibody labeling kit (Thermo catalog #A20181) prior to use as described below. After fixation, the following steps were carried out at room temperature. Cells were first permeabilized with 0.3% Triton X-100 in phosphate-buffered saline (PBS) for 15 minutes and then incubated in blocking buffer containing 5% goat serum, 0.3% tween-20 and 0.03% sodium azide in PBS for 1 hour. Cells were stained with a mixture of ASC-Alexa 488 antibody (diluted 1:200 in blocking buffer) and nuclear stain DRAQ5 (1:5000 in blocking buffer, Thermo catalog #62251) in blocking buffer for 1 hour. Following a wash with 0.3% Tween-20 in PBS, plates were imaged with an Opera Phenix High Content Screening System. The number of DRAQ5 positive cells containing ASC SPECKS were quantified in each well.
Data analysis: EC50 values were calculated by standard curve-fitting analysis using an internally developed program in TIBCO Spotfire software.
For the compound `Cc1cc(C(F)(F)F)cc(O)c1-c1cc2c(nn1)N(C1CC(C)(C)C1O)CCC2` (single isomer, unassigned) [Example 5, 2-(8-((1S,2R or 1R,2S)-2-hydroxy-3,3-dimethylcyclobutyl)-5,6,7,8-tetrahydropyrido[2,3-c]pyridazin-3-yl)-3-methyl-5-(trifluoromethyl)phenol], the EC50 amounted to 1430 nM.
Consider `Cc1cc(C(F)(F)F)cc(O)c1-c1cc2c(nn1)N(C1CC(C)(C)C1O)CCC2` (single isomer, unassigned) [Example 6, 2-(8-((1R,2S or 1S,2R)-2-hydroxy-3,3-dimethylcyclobutyl)-5,6,7,8-tetrahydropyrido[2,3-c]pyridazin-3-yl)-3-methyl-5-(trifluoromethyl)phenol], for which the EC50 was found to be 118 nM.
For the compound `Cc1cc(C(F)(F)F)cc(O)c1-c1cc2c(nn1)N([C@H]1C[C@@](C)(O)C1)CCC2` [Example 1, 2-(8-((1s,3s)-3-hydroxy-3-methylcyclobutyl)-5,6,7,8-tetrahydropyrido[2,3-c]pyridazin-3-yl)-3-methyl-5-(trifluoromethyl)phenol], the EC50 came out at 42 nM.
Turning to `CCN1CCC[C@@H](N2CCCc3cc(-c4c(C)cc(C(F)(F)F)cc4O)nnc32)C1` [Example 2, (R)-2-(8-(1-ethylpiperidin-3-yl)-5,6,7,8-tetrahydropyrido[2,3-c]pyridazin-3-yl)-3-methyl-5-(trifluoromethyl)phenol], the EC50 is 5 nM.
As for `Cc1cc(C(F)(F)F)cc(O)c1-c1cc2c(nn1)N(C13CCCC(O)(C1)C3)CCC2` [Example 3, 5-(3-(2-hydroxy-6-methyl-4-(trifluoromethyl)phenyl)-6,7-dihydropyrido[2,3-c]pyridazin-8(5H)-yl)bicyclo[3.1.1]heptan-1-ol], the EC50 was found to be 125 nM.
With `Cc1cc(C(F)(F)F)cc(O)c1-c1cc2c(nn1)N([C@@H]1CCCC[C@H]1O)CCC2` [Example 4, 2-(8-((1R,2R)-2-hydroxycyclohexyl)-5,6,7,8-tetrahydropyrido[2,3-c]pyridazin-3-yl)-3-methyl-5-(trifluoromethyl)phenol], the EC50 came to 157 nM.
On to `Cc1cc(C(F)(F)F)cc(O)c1-c1cc2c(nn1)N(C[C@@H]1C[C@H](F)CN1)CCC2` [Example 7, 2-(8-(((2S,4S)-4-fluoropyrrolidin-2-yl)methyl)-5,6,7,8-tetrahydropyrido[2,3-c]pyridazin-3-yl)-3-methyl-5-(trifluoromethyl)phenol], for which the EC50 was 240 nM.
Take `Cc1cc(C(F)(F)F)cc(O)c1-c1cc2c(nn1)N([C@H]1C[C@@](C)(O)C1)C[C@H](N)C2` [Example 8, 2-((R)-6-amino-8-((1s,3S)-3-hydroxy-3-methylcyclobutyl)-5,6,7,8-tetrahydropyrido[2,3-c]pyridazin-3-yl)-3-methyl-5-(trifluoromethyl)phenol]: the EC50 worked out at 285 nM.
As to `CCN1CCC[C@@H](N2CCCc3c2nnc(-c2ccc(C(F)(F)F)cc2O)c3C)C1` [Example 9, (R)-2-(8-(1-ethylpiperidin-3-yl)-4-methyl-5,6,7,8-tetrahydropyrido[2,3-c]pyridazin-3-yl)-5-(trifluoromethyl)phenol], the EC50 stood at 48 nM.
As to `CCN1CCC[C@@H](N2CCCc3c2nnc(-c2ccc(C(F)(F)F)cc2OC(F)F)c3C)C1` [Example 10, (R)-3-(2-(difluoromethoxy)-4-(trifluoromethyl)phenyl)-8-(1-ethylpiperidin-3-yl)-4-methyl-5,6,7,8-tetrahydropyrido[2,3-c]pyridazine], the EC50 amounted to 380 nM.
For `CCN1CCC[C@@H](N2CCCc3c2nnc(-c2ccc(C(F)(F)F)nc2OC(F)F)c3C)C1` [Example 11, (R)-3-(2-(difluoromethoxy)-6-(trifluoromethyl)pyridin-3-yl)-8-(1-ethylpiperidin-3-yl)-4-methyl-5,6,7,8-tetrahydropyrido[2,3-c]pyridazine], the EC50 came to 1070 nM.
`CCN1CCC[C@@H](N2CCCc3c2nnc(-c2ccc4occc4c2)c3C)C1` [Example 12, (R)-3-(benzofuran-5-yl)-8-(1-ethylpiperidin-3-yl)-4-methyl-5,6,7,8-tetrahydropyrido[2,3-c]pyridazine]: the EC50 turned out to be 253 nM.
Turning to `Cc1cc(C(F)(F)F)cc(O)c1-c1cc2c(nn1)N(C[C@@H]1C[C@H](F)CN1C)CCC2` [Example 13, 2-(8-(((2S,4S)-4-fluoro-1-methylpyrrolidin-2-yl)methyl)-5,6,7,8-tetrahydropyrido[2,3-c]pyridazin-3-yl)-3-methyl-5-(trifluoromethyl)phenol], the EC50 was 629 nM.
With `Cc1cc(C(F)(F)F)cc(O)c1-c1cc2c(nn1)N([C@H]1CN(C)CC[C@H]1O)CCC2` [Example 14, (3S,4R)-3-(3-(2-hydroxy-6-methyl-4-(trifluoromethyl)phenyl)-6,7-dihydropyrido[2,3-c]pyridazin-8(5H)-yl)-1-methylpiperidin-4-ol], the EC50 is 27 nM.
With `CCN1C[C@@H](F)C[C@H]1CN1CCCc2cc(-c3c(C)cc(C(F)(F)F)cc3O)nnc21` [Example 15, 2-(8-(((2S,4S)-1-ethyl-4-fluoropyrrolidin-2-yl)methyl)-5,6,7,8-tetrahydropyrido[2,3-c]pyridazin-3-yl)-3-methyl-5-(trifluoromethyl)phenol], the EC50 came out at 692 nM.
For the compound `CC(=O)N1C[C@H](F)C[C@H]1CN1CCCc2cc(-c3c(C)cc(C(F)(F)F)cc3O)nnc21` [Example 16, 1-((2S,4R)-4-fluoro-2-((3-(2-hydroxy-6-methyl-4-(trifluoromethyl)phenyl)-6,7-dihydropyrido[2,3-c]pyridazin-8(5H)-yl)methyl)pyrrolidin-1-yl)ethan-1-one], the 50% effective concentration (EC50) came out at 317 nM.
Take `CC(=O)N1C[C@@H](F)C[C@H]1CN1CCCc2cc(-c3c(C)cc(C(F)(F)F)cc3O)nnc21` [Example 17, 1-((2S,4S)-4-fluoro-2-((3-(2-hydroxy-6-methyl-4-(trifluoromethyl)phenyl)-6,7-dihydropyrido[2,3-c]pyridazin-8(5H)-yl)methyl)pyrrolidin-1-yl)ethan-1-one]: the EC50 was 597 nM.
The value for `CCC(=O)N1C[C@H](F)C[C@H]1CN1CCCc2cc(-c3c(C)cc(C(F)(F)F)cc3O)nnc21` [Example 18, 1-((2S,4R)-4-fluoro-2-((3-(2-hydroxy-6-methyl-4-(trifluoromethyl)phenyl)-6,7-dihydropyrido[2,3-c]pyridazin-8(5H)-yl)methyl)pyrrolidin-1-yl)propan-1-one] was 204 nM; that for `Cc1cc(C(F)(F)F)cc(O)c1-c1cc2c(nn1)N(C[C@@H]1C[C@@H](F)CN1C(=O)C1CC1)CCC2` [Example 19, cyclopropyl((2S,4R)-4-fluoro-2-((3-(2-hydroxy-6-methyl-4-(trifluoromethyl)phenyl)-6,7-dihydropyrido[2,3-c]pyridazin-8(5H)-yl)methyl)pyrrolidin-1-yl)methanone] was 431 nM.
With `Cc1cc(C(F)(F)F)cc(O)c1-c1cc2c(nn1)N(C[C@@H]1C[C@@H](F)CN1C(=O)C1CCC1)CCC2` [Example 20, cyclobutyl((2S,4R)-4-fluoro-2-((3-(2-hydroxy-6-methyl-4-(trifluoromethyl)phenyl)-6,7-dihydropyrido[2,3-c]pyridazin-8(5H)-yl)methyl)pyrrolidin-1-yl)methanone], the EC50 came to 874 nM.
Regarding `Cc1cc(C(F)(F)F)cc(O)c1-c1cc2c(nn1)N(C[C@@H]1C[C@@H](F)CN1S(C)(=O)=O)CCC2` [Example 21, 2-(8-(((2S,4R)-4-fluoro-1-(methylsulfonyl)pyrrolidin-2-yl)methyl)-5,6,7,8-tetrahydropyrido[2,3-c]pyridazin-3-yl)-3-methyl-5-(trifluoromethyl)phenol], the EC50 worked out at 351 nM.
On to `Cc1cc(C(F)(F)F)cc(O)c1-c1cc2c(nn1)N(C[C@@H]1C[C@H](F)CN1S(C)(=O)=O)CCC2` [Example 22, 2-(8-(((2S,4S)-4-fluoro-1-(methylsulfonyl)pyrrolidin-2-yl)methyl)-5,6,7,8-tetrahydropyrido[2,3-c]pyridazin-3-yl)-3-methyl-5-(trifluoromethyl)phenol], for which the EC50 is 784 nM.
